The results in this text go back to US9546173B2 (Novartis AG, priority 2012, dated 2017).

For the first assay, the target named is activated ERK2 (Homo sapiens (Human), UniProt P28482). Description: Activated ERK2 kinase assay (AlphaScreen, ERKtide peptide phosphorylation). Format: biochemical. As to conditions: 0.25 nM ERK2, 200 nM ERKtide peptide, 35 μM ATP, 30 min preincubation; read-out: ERK2 IC50.
Chain of activated ERK2 (P28482 whole entry): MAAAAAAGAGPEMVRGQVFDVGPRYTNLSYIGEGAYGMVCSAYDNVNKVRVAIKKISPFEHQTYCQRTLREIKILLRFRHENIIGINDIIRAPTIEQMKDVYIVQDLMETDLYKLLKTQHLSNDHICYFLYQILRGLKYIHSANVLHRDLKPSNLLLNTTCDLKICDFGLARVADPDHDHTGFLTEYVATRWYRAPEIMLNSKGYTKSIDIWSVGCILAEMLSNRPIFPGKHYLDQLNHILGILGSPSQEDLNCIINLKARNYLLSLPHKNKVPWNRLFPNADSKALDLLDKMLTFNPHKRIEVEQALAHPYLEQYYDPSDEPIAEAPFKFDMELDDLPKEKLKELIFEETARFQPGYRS
With `CN(C)C[C@H](NC(=O)N1Cc2nc(Nc3ccccc3)ncc2C1(C)C)c1ccccc1` [compound 168, (R)-N-(2-(dimethylamino)-1-phenylethyl)-5,5-dimethyl-2-(phenylamino)-5H-pyrrolo[3,4-d]pyrimidine-6(7H)-carboxamide], the IC50 – broadly, the concentration that gives 50% inhibition – was found to be 125 µM.

Still in this assay, the particulars now being: […] ERK2, 200 nM ERKtide peptide, 35 μM ATP, 30 min preincubation; read-out: ERK2 IC50.
As to `Cc1ccc(S(=O)(=O)N2CCC[C@@H](NC(=O)N3Cc4nc(NC5CCOCC5)ncc4C3(C)C)C2)cc1` [compound 114, (R)-5,5-dimethyl-2-((tetrahydro-2H-pyran-4-yl)amino)-N-(1-tosylpiperidin-3-yl)-5H-pyrrolo[3,4-d]pyrimidine-6(7H)-carboxamide], the IC50 stood at 0.176 µM.
As to `C[C@@H](NC(=O)N1Cc2nc(NC3CCOCC3)ncc2C1(C)C)c1cc(F)cc(S(C)(=O)=O)c1` [compound 115, (R)-N-(1-(3-fluoro-5-(methylsulfonyl)phenyl)ethyl)-5,5-dimethyl-2-((tetrahydro-2H-pyran-4-yl)amino)-5H-pyrrolo[3,4-d]pyrimidine-6(7H)-carboxamide], the IC50 was 0.002 µM.
As to `C[C@H](NC(=O)N1Cc2nc(NC3CCOCC3)ncc2C1(C)C)c1cc(F)cc(S(C)(=O)=O)c1` [compound 116, (S)-N-(1-(3-fluoro-5-(methylsulfonyl)phenyl)ethyl)-5,5-dimethyl-2-((tetrahydro-2H-pyran-4-yl)amino)-5H-pyrrolo[3,4-d]pyrimidine-6(7H)-carboxamide], the IC50 was determined as 0.457 µM.
With `CC1(C)c2cnc(NC3CCOCC3)nc2CN1C(=O)N[C@H](CO)c1cccc(S(C)(=O)=O)c1` [compound 117, (S)-N-(2-hydroxy-1-(3-(methylsulfonyl)phenyl)ethyl)-5,5-dimethyl-2-((tetrahydro-2H-pyran-4-yl)amino)-5H-pyrrolo[3,4-d]pyrimidine-6(7H)-carboxamide], the IC50 turned out to be 0.007 µM.
Take `CC1(C)c2cnc(NC3CCOCC3)nc2CN1C(=O)N[C@@H]1CCCN(S(=O)(=O)c2cccc(Cl)c2)C1` [compound 118, (R)-N-(1-((3-chlorophenyl)sulfonyl)piperidin-3-yl)-5,5-dimethyl-2-((tetrahydro-2H-pyran-4-yl)amino)-5H-pyrrolo[3,4-d]pyrimidine-6(7H)-carboxamide]: the IC50 was 0.023 µM.
The same measure, in the same setting: with `CC1(C)c2cnc(NC3CCOCC3)nc2CN1C(=O)N[C@@H]1CCCN(S(=O)(=O)c2ccc(Cl)cc2)C1` [compound 119, (R)-N-(1-((4-chlorophenyl)sulfonyl)piperidin-3-yl)-5,5-dimethyl-2-((tetrahydro-2H-pyran-4-yl)amino)-5H-pyrrolo[3,4-d]pyrimidine-6(7H)-carboxamide] the figure was 0.156 µM; with `CC1(C)c2cnc(NC3CCOCC3)nc2CN1C(=O)NCc1ccccc1F` [compound 120, N-(2-fluorobenzyl)-5,5-dimethyl-2-((tetrahydro-2H-pyran-4-yl)amino)-5H-pyrrolo[3,4-d]pyrimidine-6(7H)-carboxamide], 0.158 µM; with `CC1(C)c2cnc(NC3CCOCC3)nc2CN1C(=O)NCc1ccc(C(F)(F)F)cc1` [compound 121, 5,5-dimethyl-2-((tetrahydro-2H-pyran-4-yl)amino)-N-(4-(trifluoromethyl)benzyl)-5H-pyrrolo[3,4-d]pyrimidine-6(7H)-carboxamide], 0.01 µM.
On the same count and under the same terms, with `CC1(C)c2cnc(NC3CCOCC3)nc2CN1C(=O)NCc1ccc(C#N)cc1` [compound 122, N-(4-cyanobenzyl)-5,5-dimethyl-2-((tetrahydro-2H-pyran-4-yl)amino)-5H-pyrrolo[3,4-d]pyrimidine-6(7H)-carboxamide] the figure was 0.038 µM.
With `CC1(C)c2cnc(NC3CCOCC3)nc2CN1C(=O)NCc1ccc(Br)cc1` [compound 123, N-(4-bromobenzyl)-5,5-dimethyl-2-((tetrahydro-2H-pyran-4-yl)amino)-5H-pyrrolo[3,4-d]pyrimidine-6(7H)-carboxamide], the 50% inhibitory concentration (IC50) amounted to 0.007 µM.
Turning to `CC1(C)c2cnc(NC3CCOCC3)nc2CN1C(=O)NCc1ccc(Cl)c(F)c1` [compound 124, N-(4-chloro-3-fluorobenzyl)-5,5-dimethyl-2-((tetrahydro-2H-pyran-4-yl)amino)-5H-pyrrolo[3,4-d]pyrimidine-6(7H)-carboxamide], the IC50 was 0.006 µM.
For the compound `COc1ccc(CNC(=O)N2Cc3nc(NC4CCOCC4)ncc3C2(C)C)cc1` [compound 125, N-(4-methoxybenzyl)-5,5-dimethyl-2-((tetrahydro-2H-pyran-4-yl)amino)-5H-pyrrolo[3,4-d]pyrimidine-6(7H)-carboxamide], the IC50 worked out at 0.056 µM.
For `CC1(C)c2cnc(NC3CCOCC3)nc2CN1C(=O)NCc1ccc(Cl)c(Cl)c1` [compound 126, N-(3,4-dichlorobenzyl)-5,5-dimethyl-2-((tetrahydro-2H-pyran-4-yl)amino)-5H-pyrrolo[3,4-d]pyrimidine-6(7H)-carboxamide], the 50% inhibitory concentration (IC50) came out at 0.001 µM.
For `Cc1cccc([C@@H](CO)NC(=O)N2Cc3nc(NC4CCOCC4)ncc3C2(C)C)c1` [compound 127, (S)-N-(2-hydroxy-1-(m-tolyl)ethyl)-5,5-dimethyl-2-((tetrahydro-2H-pyran-4-yl)amino)-5H-pyrrolo[3,4-d]pyrimidine-6(7H)-carboxamide], the IC50 is 0.016 µM.
For `CC1(C)c2cnc(NC3CCOCC3)nc2CN1C(=O)N[C@H](CO)c1cccc(F)c1` [compound 128, (S)-N-(1-(3-fluorophenyl)-2-hydroxyethyl)-5,5-dimethyl-2-((tetrahydro-2H-pyran-4-yl)amino)-5H-pyrrolo[3,4-d]pyrimidine-6(7H)-carboxamide], the IC50 amounted to 0.009 µM.
Take `Cc1ccc(CNC(=O)N2Cc3nc(NC4CCOCC4)ncc3C2(C)C)cc1` [compound 129, 5,5-dimethyl-N-(4-methylbenzyl)-2-((tetrahydro-2H-pyran-4-yl)amino)-5H-pyrrolo[3,4-d]pyrimidine-6(7H)-carboxamide]: the IC50 amounted to 0.021 µM.
Turning to `CC1(C)c2cnc(NC3CCOCC3)nc2CN1C(=O)NCc1cccc(S(=O)(=O)C2CC2)c1` [compound 130, N-(3-(cyclopropylsulfonyl)benzyl)-5,5-dimethyl-2-((tetrahydro-2H-pyran-4-yl)amino)-5H-pyrrolo[3,4-d]pyrimidine-6(7H)-carboxamide], the IC50 was 0.071 µM.
With `C[C@@H](NC(=O)N1Cc2nc(NC3CCOCC3)ncc2C1(C)C)c1cccc(S(C)(=O)=O)c1` [compound 131, (R)-5,5-dimethyl-N-(1-(3-(methylsulfonyl)phenyl)ethyl)-2-((tetrahydro-2H-pyran-4-yl)amino)-5H-pyrrolo[3,4-d]pyrimidine-6(7H)-carboxamide], the half-maximal inhibitory concentration (IC50) is 0.009 µM.
For the compound `CC1(C)c2cnc(NC3CCOCC3)nc2CN1C(=O)NCc1ccc(SC(F)(F)F)cc1` [compound 132, 5,5-dimethyl-2-((tetrahydro-2H-pyran-4-yl)amino)-N-(4-((trifluoromethyl)thio)benzyl)-5H-pyrrolo[3,4-d]pyrimidine-6(7H)-carboxamide], the IC50 amounted to 0.011 µM.
Same read-out and setting: with `CC1(C)c2cnc(NC3CCOCC3)nc2CN1C(=O)NCc1ccc(Oc2ccccc2)cc1` [compound 133, 5,5-dimethyl-N-(4-phenoxybenzyl)-2-((tetrahydro-2H-pyran-4-yl)amino)-5H-pyrrolo[3,4-d]pyrimidine-6(7H)-carboxamide] the figure was 0.011 µM; with `CC1(C)c2cnc(NC3CCOCC3)nc2CN1C(=O)NCc1ccc([S+]([O-])C(F)(F)F)cc1` (centres unmarked) [compound 134, 5,5-dimethyl-2-((tetrahydro-2H-pyran-4-yl)amino)-N-(4-((trifluoromethyl)sulfinyl)benzyl)-5H-pyrrolo[3,4-d]pyrimidine-6(7H)-carboxamide], 0.039 µM; with `CC1(C)c2cnc(NC3CCOCC3)nc2CN1C(=O)NCc1cccc(C#N)c1` [compound 135, N-(3-cyanobenzyl)-5,5-dimethyl-2-((tetrahydro-2H-pyran-4-yl)amino)-5H-pyrrolo[3,4-d]pyrimidine-6(7H)-carboxamide], 0.038 µM.
As for `C[C@@H](NC(=O)N1Cc2nc(NC3CCOCC3)ncc2C1(C)C)c1ccc(C#N)cc1` [compound 136, (R)-N-(1-(4-cyanophenyl)ethyl)-5,5-dimethyl-2-((tetrahydro-2H-pyran-4-yl)amino)-5H-pyrrolo[3,4-d]pyrimidine-6(7H)-carboxamide], the IC50 turned out to be 0.021 µM.
In the case of `CC1(C)c2cnc(NC3CCOCC3)nc2CN1C(=O)NCc1ccc(S(=O)(=O)C(F)(F)F)cc1` [compound 137, 5,5-dimethyl-2-((tetrahydro-2H-pyran-4-yl)amino)-N-(4-((trifluoromethyl)sulfonyl)benzyl)-5H-pyrrolo[3,4-d]pyrimidine-6(7H)-carboxamide], the 50% inhibitory concentration (IC50) turned out to be 0.019 µM.
Regarding `CC1(C)c2cnc(NC3CCOCC3)nc2CN1C(=O)N[C@H](CCO)c1ccccc1` [compound 138, (R)-N-(3-hydroxy-1-phenylpropyl)-5,5-dimethyl-2-((tetrahydro-2H-pyran-4-yl)amino)-5H-pyrrolo[3,4-d]pyrimidine-6(7H)-carboxamide], the IC50 came to 0.073 µM.
As to `C[C@@H](NC(=O)N1Cc2nc(NC3CCOCC3)ncc2C1(C)C)c1ccc(S(C)(=O)=O)cc1` [compound 139, (R)-5,5-dimethyl-N-(1-(4-(methylsulfonyl)phenyl)ethyl)-2-((tetrahydro-2H-pyran-4-yl)amino)-5H-pyrrolo[3,4-d]pyrimidine-6(7H)-carboxamide], the half-inhibitory concentration (IC50) was 0.032 µM.
Same read-out and setting: with `CC1(C)c2cnc(NC3CCOCC3)nc2CN1C(=O)N[C@@H]1CCN(Cc2ccccc2F)C1` [compound 146, (R)-N-(1-(2-fluorobenzyl)pyrrolidin-3-yl)-5,5-dimethyl-2-((tetrahydro-2H-pyran-4-yl)amino)-5H-pyrrolo[3,4-d]pyrimidine-6(7H)-carboxamide] the figure was 0.014 µM.
Take `CC1(C)c2cnc(NC3CCOCC3)nc2CN1C(=O)NC1CC(CO)CN(Cc2ccccc2F)C1` (centres unmarked) [compound 147, N-(1-(2-fluorobenzyl)-5-(hydroxymethyl)piperidin-3-yl)-5,5-dimethyl-2-((tetrahydro-2H-pyran-4-yl)amino)-5H-pyrrolo[3,4-d]pyrimidine-6(7H)-carboxamide]: the IC50 amounted to 0.214 µM.
